# Measured values reported in paper PMC5749703, “Isolation and characterization of a novel metagenomic enzyme capable of degrading bacterial phytotoxin toxoflavin” (PLoS ONE, 2018).
# System: T1, TxeA
# T1 construct: no evidence of oligomer
# Assay: toxoflavin degradation, initial velocities (HPLC)
# Assay type: biochemical, uncultured bacterium
# Settings: pH 5.0, 20°C; Mn2+, DTT and oxygen required (DTT reduces toxoflavin to dihydrotoxoflavin)
# Method: toxoflavin degradation, initial velocities (HPLC) on TxeA | apparent binding constants of substrate (KM) and catalytic efficiency (kcat/KM) for TxeA were determined
smiles,measurement,value
"Cn1ncnc2c(=O)n(C)c(=O)nc1-2 [toxoflavin, 1,6-dimethylpyrimido[5,4-e]-1,2,4-triazine-5,7(1H,6H)-dione]",Km,14 µM
